How the values were obtained:
[1] = target: hα6(D199Y) + hβ4 + hβ3 nAChR (Homo sapiens, UniProt P30926+Q15825, D199Y); assay: Oocyte two-electrode voltage clamp; format: cell-based
Description: (§1) We planned to introduce identical amounts of cRNA, presumably producing equal amounts of each subunit protein, into oocytes largely due to lack of information about the levels of mRNA for each subunits that compose α6*-nAChRs in neurons or other cells. Concentrations of cRNAs for each nAChR α and β subunits (WT, mutant or variant) were adjusted to 500 ng μL^−1. We provisionally assumed that hα6 or its variants in association with hβ2 or hβ4 subunits would form complexes having 2:3 and/or 3:2 ratios of the indicated subunits and that oocytes also injected with WT or mutant form of β3 subunits (i.e., β3^V9’S) would express nAChR with 2:2:1 ratios of α:β:(β3 or β3^V9’S) subunits. For expression of binary nAChRs (i.e., two subunit containing nAChRs; α + β but not β3) cRNA mixtures were prepared by mixing 1 μL of cRNA for each subunit and an additional μL of RNAse free water (i.e., total volume 3 μL). Similarly for expression of ternary nAChRs [i.e., three subunit containing nAChRs; (α + β) + (β3 or β3^V9’S)] cRNA mixtures were prepared by mixing 1 μL of cRNA for each subunit. Several preparations of each mixture were prepared and stored at −80°C until further use. Injection of 138 nL of cRNA, out of 3 μL cRNA mixtures, into each oocyte would deliver ~23 ng of cRNA for each subunit whether binary or ternary nAChRs are expressed.
(§2) Two to 5 days after injection, oocytes were placed in a small-volume chamber and continuously perfused with OR2. The chamber was grounded through an agarose bridge. The oocytes were voltage-clamped at −70 mV (unless otherwise noted) to measure agonist or antagonist induced currents using Axoclamp 900A and pClamp 10.2 software (Molecular Devices, Sunnyvale, CA). The current signal was low-pass filtered at 10 Hz with the built-in low-pass Bessel filter in the Axoclamp 900A and digitized at 20 Hz with Axon Digidata1440A and pClamp10. […] Drugs (agonists and antagonists) were prepared daily in OR2. Drug was applied using a Valvelink 8.2 perfusion system (Automate scientific, Berkeley, CA). […] Then for the purpose of comparison electrophysiological recordings were performed in a given day in a given batch of oocytes following the same order of injections. […] All hβ4*-nAChR recordings were done in similar conditions to facilitate comparisons between hα6hβ4- and hα6hβ4hβ3-nAChRs. All electrophysiological measurements were conducted or checked in at least two batches of oocytes.
(§3) Raw data was collected and processed in part using pClamp 10.2 (Molecular Devices, Sunnyvale, CA), Origin 7.5 (OriginLab Corporation, Northampton, MA) and a spreadsheet (Excel; Microsoft, Bellevue, WA). Peak current amplitudes (Imax) are reported as mean ± SEM (for results from at least three oocytes, i.e., n = 3).

[2] = target: T1, hα6(R87C) + WT hβ2 + hβ3^V9’S nAChR (Homo sapiens, UniProt P17787+Q15825, R87C); assay: Oocyte two-electrode voltage clamp; format: cell-based; conditions: ACh, nicotine or atropine; hβ2 type not specified
T1 construct: Full length capped mRNA (i.e., cRNA) was transcribed from linearized plasmids; expressed in transfected cells; host or cells: Xenopus laevis oocytes injected with cRNA
T1 sequence (Q15825 26-494 R87C): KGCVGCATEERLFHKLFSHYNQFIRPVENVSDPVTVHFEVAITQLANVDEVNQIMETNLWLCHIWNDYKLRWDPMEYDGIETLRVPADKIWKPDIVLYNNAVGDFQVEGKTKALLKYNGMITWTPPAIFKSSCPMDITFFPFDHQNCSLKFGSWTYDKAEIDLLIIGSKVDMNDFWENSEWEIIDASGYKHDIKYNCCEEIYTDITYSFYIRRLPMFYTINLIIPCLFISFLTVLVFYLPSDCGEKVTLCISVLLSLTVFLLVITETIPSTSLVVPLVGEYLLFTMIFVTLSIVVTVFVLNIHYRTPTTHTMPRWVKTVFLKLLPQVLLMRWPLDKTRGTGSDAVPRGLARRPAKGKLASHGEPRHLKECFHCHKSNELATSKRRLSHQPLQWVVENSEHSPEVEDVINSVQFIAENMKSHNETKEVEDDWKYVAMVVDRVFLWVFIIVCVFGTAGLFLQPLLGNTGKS
T1 sequence (P17787 26-502): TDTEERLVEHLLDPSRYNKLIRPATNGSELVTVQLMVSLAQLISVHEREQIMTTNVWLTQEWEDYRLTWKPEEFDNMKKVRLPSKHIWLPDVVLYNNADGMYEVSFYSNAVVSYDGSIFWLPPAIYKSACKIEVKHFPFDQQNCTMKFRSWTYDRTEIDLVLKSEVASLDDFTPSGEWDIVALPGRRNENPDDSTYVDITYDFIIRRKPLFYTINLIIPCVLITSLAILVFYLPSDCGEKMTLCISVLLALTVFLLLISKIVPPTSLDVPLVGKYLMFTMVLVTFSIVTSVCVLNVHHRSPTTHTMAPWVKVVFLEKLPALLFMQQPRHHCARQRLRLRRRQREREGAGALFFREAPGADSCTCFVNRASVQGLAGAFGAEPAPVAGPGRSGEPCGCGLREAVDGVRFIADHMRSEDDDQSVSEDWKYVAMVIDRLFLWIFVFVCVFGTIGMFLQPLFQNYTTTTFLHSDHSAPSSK
T1 sequence (Q05901 25-458 V273S partner limits assumed): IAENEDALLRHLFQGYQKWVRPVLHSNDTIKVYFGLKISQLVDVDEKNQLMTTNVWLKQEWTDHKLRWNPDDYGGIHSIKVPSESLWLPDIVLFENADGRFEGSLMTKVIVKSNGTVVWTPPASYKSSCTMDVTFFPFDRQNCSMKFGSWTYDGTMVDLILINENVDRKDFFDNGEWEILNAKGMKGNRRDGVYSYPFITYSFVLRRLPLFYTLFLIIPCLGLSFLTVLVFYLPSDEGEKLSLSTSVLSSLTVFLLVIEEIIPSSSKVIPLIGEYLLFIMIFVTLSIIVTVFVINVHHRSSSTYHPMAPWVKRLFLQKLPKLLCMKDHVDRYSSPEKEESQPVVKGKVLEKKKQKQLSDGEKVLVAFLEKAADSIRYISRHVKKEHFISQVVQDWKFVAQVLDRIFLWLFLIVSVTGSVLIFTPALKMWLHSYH
Description: as §1, §2, §3

hα6(R96H) + hβ4 nAChR = target: T2, hα6(R96H) + hβ4 nAChR (Homo sapiens, UniProt P30926+Q15825, R96H); assay: Oocyte two-electrode voltage clamp; format: cell-based; conditions: 1000 μM ACh; 1 μM atropine co-applied
T2 construct: Full length capped mRNA (i.e., cRNA) was transcribed from linearized plasmids; expressed in transfected cells; host or cells: Xenopus laevis oocytes injected with cRNA
T2 sequence (Q15825 26-494 R96H): as the sequence (Q15825 26-494 R87C) above, with C62R, R71H counted along it
T2 sequence (P30926 22-498, stated change not applied): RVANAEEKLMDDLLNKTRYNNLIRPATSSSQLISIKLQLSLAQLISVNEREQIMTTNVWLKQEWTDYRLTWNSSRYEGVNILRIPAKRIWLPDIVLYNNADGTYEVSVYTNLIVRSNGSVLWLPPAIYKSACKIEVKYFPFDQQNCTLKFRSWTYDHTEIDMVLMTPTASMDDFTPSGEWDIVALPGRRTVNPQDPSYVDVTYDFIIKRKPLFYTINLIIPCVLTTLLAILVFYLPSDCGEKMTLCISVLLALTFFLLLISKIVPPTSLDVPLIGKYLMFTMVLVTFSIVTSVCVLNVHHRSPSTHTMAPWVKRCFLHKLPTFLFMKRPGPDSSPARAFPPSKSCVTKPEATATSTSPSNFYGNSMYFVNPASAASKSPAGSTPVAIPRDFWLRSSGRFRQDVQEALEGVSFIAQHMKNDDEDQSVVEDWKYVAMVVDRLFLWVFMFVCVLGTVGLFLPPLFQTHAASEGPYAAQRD
Description: as §1, §2, §3

[3] = target: hα6^D57Nhβ4hβ3^V9’S-nAChR (Homo sapiens, UniProt P30926+Q15825, D57N); conditions: nicotine (100 μM), ACh (100 μM) or atropine (1000 μM)
Sequence of hα6^D57Nhβ4hβ3^V9’S-nAChR (Q15825 26-494 D57N): as the sequence (Q15825 26-494 R87C) above, with D32N, C62R counted along it
Sequence of hα6^D57Nhβ4hβ3^V9’S-nAChR (P30926 22-498): as the sequence (P30926 22-498, stated change not applied) above
Sequence of hα6^D57Nhβ4hβ3^V9’S-nAChR (Q05901 25-458 V273S partner limits assumed): as the sequence (Q05901 25-458 V273S partner limits assumed) above
Description: as §1, §2

[4] = target: hα6^N171Khβ4β3^V9’S-nAChR (Homo sapiens, UniProt P30926+Q15825, N171K); conditions: nicotine (100 μM), ACh (100 μM) or atropine (1000 μM)
Sequence of hα6^N171Khβ4β3^V9’S-nAChR (Q15825 26-494 N171K): as the sequence (Q15825 26-494 R87C) above, with C62R, N146K counted along it
Sequence of hα6^N171Khβ4β3^V9’S-nAChR (P30926 22-498): as the sequence (P30926 22-498, stated change not applied) above
Sequence of hα6^N171Khβ4β3^V9’S-nAChR (Q05901 25-458 V273S partner limits assumed): as the sequence (Q05901 25-458 V273S partner limits assumed) above
Description: as §1, §2

[5] = target: hα6^R87C + hβ4 + hβ3^V9’S nAChR (Homo sapiens, UniProt P30926+Q15825, R87C); conditions: nicotine (100 μM), ACh (100 μM) or atropine (1000 μM)
Sequence of hα6^R87C + hβ4 + hβ3^V9’S nAChR (Q15825 26-494 R87C): as the sequence (Q15825 26-494 R87C) above
Sequence of hα6^R87C + hβ4 + hβ3^V9’S nAChR (P30926 22-498): as the sequence (P30926 22-498, stated change not applied) above
Sequence of hα6^R87C + hβ4 + hβ3^V9’S nAChR (Q05901 25-458 V273S partner limits assumed): as the sequence (Q05901 25-458 V273S partner limits assumed) above
Description: as §1, §2

[6] = target: hα6^S156Rhβ4hβ3^V9’S-nAChR (Homo sapiens, UniProt P30926+Q15825, S156R); conditions: nicotine (100 μM), ACh (100 μM) or atropine (1000 μM)
Sequence of hα6^S156Rhβ4hβ3^V9’S-nAChR (Q15825 26-494 S156R): as the sequence (Q15825 26-494 R87C) above, with C62R, S131R counted along it
Sequence of hα6^S156Rhβ4hβ3^V9’S-nAChR (P30926 22-498): as the sequence (P30926 22-498, stated change not applied) above
Sequence of hα6^S156Rhβ4hβ3^V9’S-nAChR (Q05901 25-458 V273S partner limits assumed): as the sequence (Q05901 25-458 V273S partner limits assumed) above
Description: as §1, §2

hα6hβ4hβ3^V9’S-nAChR = hα6hβ4hβ3^V9’S-nAChR (Homo sapiens, UniProt P30926+Q05901+Q15825, V273S); conditions: nicotine (100 μM), ACh (100 μM) or atropine (1000 μM); spontaneously opening channels
Sequence of hα6hβ4hβ3^V9’S-nAChR (Q15825 26-494): as the sequence (Q15825 26-494 R87C) above, with C62R counted along it
Sequence of hα6hβ4hβ3^V9’S-nAChR (P30926 22-498): as the sequence (P30926 22-498, stated change not applied) above
Sequence of hα6hβ4hβ3^V9’S-nAChR (Q05901 22-458 V273S): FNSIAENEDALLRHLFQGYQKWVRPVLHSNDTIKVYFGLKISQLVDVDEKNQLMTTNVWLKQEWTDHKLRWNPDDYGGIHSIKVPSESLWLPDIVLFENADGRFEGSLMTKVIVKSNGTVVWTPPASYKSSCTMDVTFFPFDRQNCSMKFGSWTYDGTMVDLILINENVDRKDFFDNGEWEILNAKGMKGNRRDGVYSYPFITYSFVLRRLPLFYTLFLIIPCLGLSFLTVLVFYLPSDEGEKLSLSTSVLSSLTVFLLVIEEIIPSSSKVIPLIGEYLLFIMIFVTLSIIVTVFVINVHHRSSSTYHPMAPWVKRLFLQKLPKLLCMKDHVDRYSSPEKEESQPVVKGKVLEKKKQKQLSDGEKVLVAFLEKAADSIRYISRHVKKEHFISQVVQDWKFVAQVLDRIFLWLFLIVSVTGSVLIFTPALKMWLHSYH
Description: as §1, §2

Sequence of hα6(D199Y) + hβ4 + hβ3 nAChR (Q15825 26-494 D199Y): as the sequence (Q15825 26-494 R87C) above, with C62R, D174Y counted along it
Sequence of hα6(D199Y) + hβ4 + hβ3 nAChR (P30926 22-498): as the sequence (P30926 22-498, stated change not applied) above
Sequence of hα6(D199Y) + hβ4 + hβ3 nAChR (Q05901 25-458 partner limits assumed): as the sequence (Q05901 25-458 V273S partner limits assumed) above, with S249V counted along it

CC(=O)OCC[N+](C)(C)C [ACh, acetylcholine]
nH ± SE (Hill coefficient) [1]: 1.1 ± 0.07
Mean Imax ± SE (nA) ([1]; 1000 μM ACh, 1 μM atropine co-applied): 494 ± 51 nA
current response [2]: not obtained
Mean Imax ± SE (nA) (hα6(R96H) + hβ4 nAChR): 31 ± 4 nA
current response (direction) [3]: outward reversible currents
current response (direction) [4]: outward reversible currents
current response [5]: not obtained
current response (direction) [6]: outward reversible currents
current response (direction) (hα6hβ4hβ3^V9’S-nAChR): robust inward current

Reference: PMC4022547 (Molecular Brain, 2014)
